Assay results as given in patent publication US10336702B2, “Pharmaceutically active compounds” (BERGENBIO ASA, priority 2015, dated 2019).

Key:
[1] = target: T1, p-Akt3 in WM115 cells (Homo sapiens, UniProt Q9Y243); assay: Phospho-Akt cellular SureFire assay, p-Akt3 in WM115 cells; assay type: cell-based; details: insulin stimulated, read-out: Biological Assay 2 IC50 (nM) Akt3 WM115
T1 construct: SureFire assays to detect cellular p-Akt1, p-Akt2 and p-Akt3 levels in WM115 cells (Akt2/3) and LNCaP cells (Akt1); endogenous in cells; host or cells: WM115 (ECACC 91061232), insulin-stimulated
T1 sequence (Q9Y243 whole entry): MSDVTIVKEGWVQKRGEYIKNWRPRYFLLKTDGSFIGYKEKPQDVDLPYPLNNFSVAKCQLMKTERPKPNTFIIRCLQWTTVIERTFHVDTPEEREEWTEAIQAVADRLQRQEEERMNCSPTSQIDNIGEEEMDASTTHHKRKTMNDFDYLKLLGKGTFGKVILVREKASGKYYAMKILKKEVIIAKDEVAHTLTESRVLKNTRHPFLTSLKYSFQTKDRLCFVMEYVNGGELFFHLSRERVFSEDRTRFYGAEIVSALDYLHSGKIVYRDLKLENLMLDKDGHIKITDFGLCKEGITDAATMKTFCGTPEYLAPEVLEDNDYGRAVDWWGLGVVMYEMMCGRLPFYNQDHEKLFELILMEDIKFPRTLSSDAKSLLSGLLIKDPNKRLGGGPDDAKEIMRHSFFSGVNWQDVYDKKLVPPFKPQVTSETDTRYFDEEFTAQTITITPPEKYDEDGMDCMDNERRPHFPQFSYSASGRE
Summary of the method: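 pThr308-Akt3 in lysates was quantified by bead-proximity SureFire detection, pairing a phospho-specific antibody with a total Akt3 antibody. Before lysis, WM115 cells in 0.1% FBS medium were treated for 15 min at 37 °C with compound (final DMSO 0.3%), following a 10 min stimulation with 100 nM insulin. IC50 was obtained by 4-parameter fitting.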

[2] = target: T2, Akt1 (Homo sapiens, UniProt P31749); assay: Akt activation assay (PDK1-mediated activation, LANCE Ultra crosstide TR-FRET), Akt1; assay type: biochemical; details: read-out: Biological Assay 1 IC50 (nM) Akt1
T2 construct: unspecified tag, removed (detagged) (cleaved yes); purchased SignalChem and Proteros (Akt1); Merck Millipore (PDK1) 14-452 (PDK1); none given for Akt1
T2 sequence (P31749 whole entry): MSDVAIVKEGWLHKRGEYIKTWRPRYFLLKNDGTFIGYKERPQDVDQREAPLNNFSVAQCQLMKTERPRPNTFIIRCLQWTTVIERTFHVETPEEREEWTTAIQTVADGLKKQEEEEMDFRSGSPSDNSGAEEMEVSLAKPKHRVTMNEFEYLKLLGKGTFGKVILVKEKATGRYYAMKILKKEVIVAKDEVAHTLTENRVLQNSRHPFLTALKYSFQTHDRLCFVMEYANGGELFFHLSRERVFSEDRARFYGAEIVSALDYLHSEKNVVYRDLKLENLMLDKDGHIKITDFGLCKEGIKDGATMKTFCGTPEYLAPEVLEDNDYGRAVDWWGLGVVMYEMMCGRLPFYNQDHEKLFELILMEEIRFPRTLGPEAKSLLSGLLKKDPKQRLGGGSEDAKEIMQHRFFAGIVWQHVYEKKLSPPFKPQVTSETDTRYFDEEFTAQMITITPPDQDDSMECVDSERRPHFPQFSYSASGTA
Summary of the method: (§1)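 TR-FRET read-out (665/615 nm ratio) after Eu-anti-phospho-crosstide antibody, 1 h. Reaction: compound preincubated with Akt isoform, then 5 nM PDK1, lipid vesicles with 0.55 μM PtdIns(3,4,5)P3, 100 μM ATP, 100 nM crosstide, 30 min, EDTA stop. IC50 from 4-parameter equation.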

[3] = target: T3, p-Akt2 in WM115 cells (Homo sapiens, UniProt P31751); assay: Phospho-Akt cellular SureFire assay, p-Akt2 in WM115 cells; assay type: cell-based; details: insulin stimulated, read-out: Biological Assay 2 IC50 (nM) Akt2 WM115
T3 construct: SureFire assays to detect cellular p-Akt1, p-Akt2 and p-Akt3 levels in WM115 cells (Akt2/3) and LNCaP cells (Akt1); endogenous in cells; host or cells: WM115 (ECACC 91061232), insulin-stimulated
T3 sequence (P31751 whole entry): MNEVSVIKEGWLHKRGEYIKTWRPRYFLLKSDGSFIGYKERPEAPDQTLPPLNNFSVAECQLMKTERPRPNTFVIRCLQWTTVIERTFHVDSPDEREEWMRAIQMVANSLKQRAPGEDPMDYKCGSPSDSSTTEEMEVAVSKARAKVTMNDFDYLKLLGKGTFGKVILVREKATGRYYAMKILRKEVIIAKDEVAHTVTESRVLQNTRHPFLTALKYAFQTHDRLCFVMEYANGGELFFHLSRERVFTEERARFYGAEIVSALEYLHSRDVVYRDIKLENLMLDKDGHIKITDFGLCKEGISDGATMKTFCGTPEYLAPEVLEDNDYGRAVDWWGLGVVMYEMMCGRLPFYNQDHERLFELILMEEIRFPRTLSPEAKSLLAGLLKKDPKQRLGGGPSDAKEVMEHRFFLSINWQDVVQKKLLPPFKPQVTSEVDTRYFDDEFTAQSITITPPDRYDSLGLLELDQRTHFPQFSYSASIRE
Summary of the method: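 Readout is a bead-proximity SureFire assay pairing a pThr308 Akt antibody with a total Akt2 antibody, lysate and beads incubated 2 h plus 2 h at room temperature in the dark. Before lysis, serum-starved WM115 cells received 100 nM insulin (10 min), then test compound (15 min, 0.3% DMSO); IC50 by 4-parameter equation.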

[4] = target: T4, Akt3 (Homo sapiens, UniProt Q9Y243); assay: Akt activation assay (PDK1-mediated activation, LANCE Ultra crosstide TR-FRET), Akt3; assay type: biochemical; details: read-out: Biological Assay 1 IC50 (nM) Akt3
T4 construct: unspecified tag, removed (detagged) (cleaved yes); purchased SignalChem and Proteros (Akt3); Merck Millipore (PDK1) 14-452 (PDK1); none given for Akt3
T4 sequence (Q9Y243 whole entry): as the sequence (Q9Y243 whole entry) above
Summary of the method: as §1

[5] = target: T5, p-Akt1 in LNCaP cells (Homo sapiens, UniProt P31749); assay: Phospho-Akt cellular SureFire assay, p-Akt1 in LNCaP cells; assay type: cell-based; details: read-out: Biological Assay 2 IC50 (nM) Akt1 LNCaP
T5 construct: SureFire assays to detect cellular p-Akt1, p-Akt2 and p-Akt3 levels in WM115 cells (Akt2/3) and LNCaP cells (Akt1); endogenous in cells; host or cells: LNCaP (ECACC 89110211)
T5 sequence (P31749 whole entry): as the sequence (P31749 whole entry) above
Summary of the method: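 Phospho-Thr308 Akt1 detected by AlphaScreen SureFire proximity beads in LNCaP lysates after 15 min compound treatment at 37 °C in 0.1% FBS medium, unstimulated, 0.3% DMSO. Cells plated at 5×10^4/well overnight; IC50 from a 4-parameter equation.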

[6] = target: T6, Akt2 (Homo sapiens, UniProt P31751); assay: Akt activation assay (PDK1-mediated activation, LANCE Ultra crosstide TR-FRET), Akt2; assay type: biochemical; details: read-out: Biological Assay 1 IC50 (nM) Akt2
T6 construct: unspecified tag, removed (detagged) (cleaved yes); purchased SignalChem and Proteros (Akt2); Merck Millipore (PDK1) 14-452 (PDK1); none given for Akt2
T6 sequence (P31751 whole entry): as the sequence (P31751 whole entry) above
Summary of the method: as §1

SMILES	IC50 [1] [nM]	IC50 [2] [nM]	IC50 [3] [nM]	IC50 [4] [nM]	IC50 [5] [nM]	IC50 [6] [nM]
N[C@]1(c2ccc(-c3cnc(NC(=O)C[C@H]4CC[C@H](N5CCOC5=O)CC4)cc3-c3ccccc3)cc2)C[C@@H](F)C1 [Example A53, N-(5-(4-(trans-1-amino-3-fluorocyclobutyl)phenyl)-4-phenylpyridin-2-yl)-2-(trans-4-(2-oxooxazolidin-3-yl)cyclohexyl)acetamide]	410	> 30000	5400	39	> 30000	480
CC(=O)N(C)[C@H]1CC[C@H](CC(=O)Nc2cc(-c3ccccc3)c(-c3ccc(C4(N)CC4)c(F)c3)nn2)CC1 [Example A54, N-(6-(4-(1-aminocyclopropyl)-3-fluorophenyl)-5-phenylpyridazin-3-yl)-2-(trans-4-(N-methylacetamido)cyclohexyl)acetamide]	520	> 30000	> 13000	160	> 30000	6300
COC(=O)N(C)[C@H]1CC[C@H](CC(=O)Nc2cc(-c3ccccc3)c(-c3ccc(C4(N)CCC4)cc3)nn2)CC1 [Example A55, Methyl (trans-4-(2-((6-(4-(1-aminocyclobutyl)phenyl)-5-phenylpyridazin-3-yl)amino)-2-oxoethyl)cyclohexyl)(methyl)carbamate]	310	> 16000	5000	16	> 30000	380
CC(=O)N(C)[C@H]1CC[C@H](CC(=O)Nc2cc(-c3ccccc3)c(-c3ccc([C@]4(N)C[C@H](F)C4)cc3)cn2)CC1 [Example A59, N-(5-(4-((1r,3r)-1-amino-3-fluorocyclobutyl)phenyl)-4-phenylpyridin-2-yl)-2-(trans-4-(N-methylacetamido)cyclohexyl)acetamide]	250	> 30000	8000	28	9700	740
COC(=O)N(C)[C@H]1CC[C@H](CC(=O)Nc2cc(-c3ccccc3)c(-c3ccc(C4(N)CCC4)cc3)cn2)CC1 [Example A61, Methyl (trans-4-(2-((5-(4-(1-aminocyclobutyl)phenyl)-4-phenylpyridin-2-yl)amino)-2-oxoethyl)cyclohexyl)(methyl)carbamate]	910	> 30000	> 27000	77	> 30000	1300
CC(=O)N(C)[C@H]1CC[C@H](CC(=O)Nc2cc(-c3ccccc3F)c(-c3ccc(C4(N)CCC4)cc3)cn2)CC1 [Example A62, N-(5-(4-(1-aminocyclobutyl)phenyl)-4-(2-fluorophenyl)pyridin-2-yl)-2-(trans-4-(N-methylacetamido)cyclohexyl)acetamide]	81	> 30000	1200	57	7100	1100
COC(=O)N(C)[C@H]1CC[C@H](CC(=O)Nc2cc(-c3ccccc3F)c(-c3ccc(C4(N)CCC4)cc3)cn2)CC1 [Example A63, Methyl (trans-4-(2-((5-(4-(1-aminocyclobutyl)phenyl)-4-(2-fluorophenyl)pyridin-2-yl)amino)-2-oxoethyl)cyclohexyl)(methyl)carbamate]	470	> 30000	6100	120	> 30000	5700
CC(=O)N(C)[C@H]1CC[C@H](CC(=O)Nc2cc(-c3ccsc3)c(-c3ccc(C4(N)CCC4)cc3)cn2)CC1 [Example A64, N-(5-(4-(1-aminocyclobutyl)phenyl)-4-(thiophen-3-yl)pyridin-2-yl)-2-(trans-4-(N-methylacetamido)cyclohexyl)acetamide]	85	> 30000	1400	30	> 30000	1400
NC1(c2ccc(-c3cnc(NC(=O)C[C@H]4CC[C@H](N5CCOC5=O)CC4)cc3-c3ccccc3F)cc2)CCC1 [Example A65, N-(5-(4-(1-aminocyclobutyl)phenyl)-4-(2-fluorophenyl)pyridin-2-yl)-2-(trans-4-(2-oxooxazolidin-3-yl)cyclohexyl)acetamide]	37	> 30000	570	17	> 30000	270
COC(=O)N(C)[C@H]1CC[C@H](CC(=O)Nc2cnc(-c3ccc(C(C)(C)N)cc3)c(-c3ccsc3)c2)CC1 [Example A67, Methyl (trans-4-(2-((6-(4-(2-aminopropan-2-yl)phenyl)-5-(thiophen-3-yl)pyridin-3-yl)amino)-2-oxoethyl)cyclohexyl)(methyl)carbamate]	830	> 30000	> 30000	200	> 30000	8900
COC(=O)N(C)[C@H]1CC[C@H](CC(=O)Nc2cc(-c3ccsc3)c(-c3ccc(C(C)(C)N)cc3)nn2)CC1 [Example A69, Methyl (trans-4-(2-((6-(4-(2-aminopropan-2-yl)phenyl)-5-(thiophen-3-yl)pyridazin-3-yl)amino)-2-oxoethyl)cyclohexyl)(methyl)carbamate]	710	> 30000	> 30000	220	> 30000	12000
COC(=O)N(C)[C@H]1CC[C@H](CC(=O)Nc2cc(-c3ccsc3)c(-c3ccc([C@]4(N)C[C@H](F)C4)cc3)nn2)CC1 [Example A70, Methyl (trans-4-(2-((6-(4-(trans-1-amino-3-fluorocyclobutyl)phenyl)-5-(thiophen-3-yl)pyridazin-3-yl)amino)-2-oxoethyl)cyclohexyl)(methyl)carbamate]	960	> 30000	> 28000	36	> 30000	1100
NC1(c2ccc(-c3cnc(NC(=O)C[C@H]4CC[C@H](N5CCCC5=O)CC4)cc3-c3ccccc3)cc2)CCC1 [Example A71, N-(5-(4-(1-aminocyclobutyl)phenyl)-4-phenylpyridin-2-yl)-2-(trans-4-(2-oxopyrrolidin-1-yl)cyclohexyl)acetamide]	130	7500	1500	15	3400	110
CCOC(=O)N(C)[C@H]1CC[C@H](CC(=O)Nc2cc(-c3ccccc3)c(-c3ccc([C@]4(N)C[C@](C)(O)C4)cc3)cn2)CC1 [Example A73, Ethyl (trans-4-(2-((5-(4-(trans-1-amino-3-hydroxy-3-methylcyclobutyl)phenyl)-4-phenylpyridin-2-yl)amino)-2-oxoethyl)cyclohexyl)(methyl)carbamate]	77	8800	1200	7	2900	130
CN(C(=O)C1CC1)[C@H]1CC[C@H](CC(=O)Nc2cc(-c3ccccc3)c(-c3ccc([C@]4(N)C[C@](C)(O)C4)cc3)cn2)CC1 [Example A75, N-(trans-4-(2-((5-(4-(trans-1-amino-3-hydroxy-3-methylcyclobutyl)phenyl)-4-phenylpyridin-2-yl)amino)-2-oxoethyl)cyclohexyl)-N-methylcyclopropanecarboxamide]	13	12000	320	6	1400	140
